Source: patent US20090054392A1, “NAPHTHYLPYRIMIDINE, NAPHTHYLPYRAZINE AND NAPHTHYLPYRIDAZINE ANALOGS AND THEIR USE AS AGONISTS OF THE WNT-BETA-CATENIN CELLULAR MESSAGING SYSTEM” (Wyeth, priority 2007, published 2009)

Tests used:
Dkk1-LRP5-TCF-Luciferase [1] = tested on: Dkk1-LRP5-TCF-Luciferase
Dkk1-LRP5-TCF-Luciferase [2] = assay: Functional Dkk1-LRP5-TCF-Luciferase Assay in U2OS Cells; details: for fold induction at 2 µM / fold induction at 20 µM / EC50: Homo sapiens, U2OS; for fold induction at 2 µM: read-out: B = TCF ACTIVITY/DMSO CONTROL Fold induction @ 2.0 uM, 2.0 uM compound; for fold induction at 20 µM: read-out: C = TCF ACTIVITY/DMSO CONTROL Fold induction @ 20.0 uM, 20.0 uM compound; for A = MAX FOLD Induction/DMSO CONTROL: maximum fold induction over DMSO control

B = TCF ACTIVITY/DMSO CONTROL Fold induction @ 2.0 uM (Dkk1-LRP5-TCF-Luciferase [1]; 2 µM) | C = TCF ACTIVITY/DMSO CONTROL Fold induction @ 20.0 uM (Dkk1-LRP5-TCF-Luciferase [1]; 20 µM) | A = MAX FOLD Induction/DMSO CONTROL (Dkk1-LRP5-TCF-Luciferase [2]) | EC50 (Dkk1-LRP5-TCF-Luciferase [2]) | Molecule | fold induction at 2 µM (Dkk1-LRP5-TCF-Luciferase [2]) | fold induction at 20 µM (Dkk1-LRP5-TCF-Luciferase [2])
1.435 fold | 1.995 fold |  |  | 6-{2-[4-(aminomethyl)piperidin-1-yl]pyrimidin-4-yl}-2-naphthyl acetate |  | 
 |  | 2.270 fold |  | NCC[C@H]1CCCN1c1nccc(-c2ccc3ccccc3c2)n1 [2-{(2R)-1-[4-(2-naphthyl)pyrimidin-2-yl]pyrrolidin-2-yl}ethanamine] | 2.72 | 0.01
 |  | 7.000 fold | 7.59 µM | c1ccc2cc(-c3ccnc(N4CCC(CN5CCCC5)C4)n3)ccc2c1 (stereo not drawn) [4-(2-naphthyl)-2-[3-(pyrrolidin-1-ylmethyl)pyrrolidin-1-yl]pyrimidine] | 1.87 | 
 |  |  |  | CN(C)S(=O)(=O)NCC1CCN(c2nccc(-c3ccc4ccccc4c3)n2)C1 (stereo not drawn) [N,N-dimethyl-N′-({1-[4-(2-naphthyl)pyrimidin-2-yl]pyrrolidin-3-yl}methyl)sulfamide] | 0.99 | 1.2
 |  |  |  | CC(C)CNc1nccc(-c2ccc3ccccc3c2)n1 [N-isobutyl-4-(2-naphthyl)pyrimidin-2-amine] | 1.77 | 
 |  |  |  | CC(C)NC(=O)N1CCC(Nc2nccc(-c3ccc4ccccc4c3)n2)CC1 [N-isopropyl-4-{[4-(2-naphthyl)pyrimidin-2-yl]amino}piperidine-1-carboxamide] | 1.07 | 1.37
 |  |  |  | O[C@H]1CCN([C@H]2CCN(c3nccc(-c4ccc5ccccc5c4)n3)C2)C1 [(3S,3′S)-1′-[4-(2-naphthyl)pyrimidin-2-yl]-1,3′-bipyrrolidin-3-ol] | 2.1 | 
 |  |  |  | CN(CCCO)[C@@H]1CCN(c2nccc(-c3ccc4ccccc4c3)n2)C1 [3-(methyl{(3R)-1-[4-(2-naphthyl)pyrimidin-2-yl]pyrrolidin-3-yl}amino)propan-1-ol] |  | 3.3
 |  | 3.620 fold | 1.02 µM | CN(C)C[C@H]1CCN(c2nccc(-c3ccc4ccccc4c3)n2)C1 [N,N-dimethyl-1-{(3R)-1-[4-(2-naphthyl)pyrimidin-2-yl]pyrrolidin-3-yl}methanamine] | 2.83 | 0.01
 |  |  |  | CCN(CC)C(=O)N(C)CCN(C)[C@@H]1CCN(c2nccc(-c3ccc4ccccc4c3)n2)C1 [1,1-diethyl-3-methyl-3-[2-(methyl{(3R)-1-[4-(2-naphthyl)pyrimidin-2-yl]pyrrolidin-3-yl}amino)ethyl]urea] | 1.93 | 
 |  |  |  | CS(=O)(=O)NCC1CCN(c2nccc(-c3ccc4ccccc4c3)n2)C1 (stereo not drawn) [N-({1-[4-(2-naphthyl)pyrimidin-2-yl]pyrrolidin-3-yl}methyl)methanesulfonamide] | 0.88 | 1.63
 |  |  |  | COC(=O)N[C@H]1CCN(c2nccc(-c3ccc4ccccc4c3)n2)C1 [methyl {(3S)-1-[4-(2-naphthyl)pyrimidin-2-yl]pyrrolidin-3-yl}carbamate] | 1.03 | 1.63
 |  | 1.480 fold |  | CC(C)CNCC1CCN(c2nccc(-c3ccc4ccccc4c3)n2)CC1 [2-methyl-N-({1-[4-(2-naphthyl)pyrimidin-2-yl]piperidin-4-yl}methyl)propan-1-amine] | 1.4 | 0.14
 |  | 1.350 fold |  | CC(=O)NC1CCCN(c2nccc(-c3ccc4ccccc4c3)n2)CC1 (stereo not drawn) [N-{1-[4-(2-naphthyl)pyrimidin-2-yl]azepan-4-yl}acetamide] | 1.26 | 2.91
